Assay [1] addresses T1, myeloperoxidase (MPO) (Homo sapiens, UniProt P05164). Nature of the assay: HOCl production by isolated MPO-H2O2-Cl− system. Format: biochemical.
Assay [2] has as its target T1, myeloperoxidase (MPO). Nature of the assay: HOCl production by isolated MPO-H2O2-Cl− system. In kind it is biochemical. The source holds these as a separate data set.

Where two headings read alike, the source gives them in different places.

T1 sequence (P05164 165-273): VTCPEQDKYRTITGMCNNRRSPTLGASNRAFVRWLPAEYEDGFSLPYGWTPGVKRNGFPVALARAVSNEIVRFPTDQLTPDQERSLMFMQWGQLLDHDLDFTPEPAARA
T1 sequence (P05164 279-745): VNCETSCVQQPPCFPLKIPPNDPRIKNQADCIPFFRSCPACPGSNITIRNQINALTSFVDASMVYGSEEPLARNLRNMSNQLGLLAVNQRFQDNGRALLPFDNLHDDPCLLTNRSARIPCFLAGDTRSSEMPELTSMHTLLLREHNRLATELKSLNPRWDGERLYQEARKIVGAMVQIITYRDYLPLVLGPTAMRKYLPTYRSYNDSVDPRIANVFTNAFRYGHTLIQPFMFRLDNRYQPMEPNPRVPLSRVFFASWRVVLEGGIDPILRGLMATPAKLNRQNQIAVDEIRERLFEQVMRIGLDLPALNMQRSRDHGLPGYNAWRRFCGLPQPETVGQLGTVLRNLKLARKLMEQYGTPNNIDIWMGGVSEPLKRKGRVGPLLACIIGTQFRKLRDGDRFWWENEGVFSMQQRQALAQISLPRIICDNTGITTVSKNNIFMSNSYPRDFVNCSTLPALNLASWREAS

For `CC1(C)CC(N)C(C)(C)N1[O]` (centres unmarked) [3-AminoPROXYL, 3-amino-2,2,5,5-tetramethylpyrrolidin-1-yloxyl], the IC50 in assay [1] was 2700 nM.
With `CC1(C)CC(N)CC(C)(C)N1[O]` [4-AminoTEMPO, 4-amino-2,2,6,6-tetramethylpiperidin-1-yloxyl], the IC50 in assay [2] is 1200 nM.

As usually defined, the IC50 is the concentration needed to halve the response being measured.

(Values after article PMC4058678 (The Biochemical journal, 2009).)
